{"source": "paper PMC4501059", "about": "“Responding to the challenge of untreatable gonorrhea: ETX0914, a first-in-class agent with a distinct mechanism-of-action against bacterial Type II topoisomerases” (Scientific Reports, 2015)", "key": {"[1]": {"system": "Staphylococcus aureus", "conditions": "cited from earlier work"}, "[2]": {"system": "Chlamydia trachomatis", "set-up": "method as in ref 3 (supplement)", "conditions": "10 tested; ref 3 (supplement); cited from earlier work"}, "[3]": {"system": "Neisseria gonorrhoeae", "conditions": "cited from earlier work"}, "[4]": {"system": "Haemophilus influenzae", "set-up": "method as in ref 2 (supplement)", "conditions": "352 tested; ref 2 (supplement); cited from earlier work"}, "[5]": {"test": "CV dog telemetry (single dose, iv)", "conditions": "for Cmax: plasma"}, "[6]": {"system": "USA100 NRS382", "test": "MIC (modal, CLSI broth microdilution)", "format": "cell-based, S. aureus", "conditions": "Staphylococcus aureus, read-out: Modal MIC"}, "[7]": {"system": "N. gonorrhoeae ARC4676 (QR)", "format": "cell-based"}, "[8]": {"test": "hepatocyte intrinsic clearance", "format": "in vitro ADME", "conditions": "female, CD-1, mouse hepatocytes", "description": "Supplement srep11827-s1.doc, table 4 | column: CD-1 mouse (female)"}, "[9]": {"system": "Coagulase-negative Staphylococci", "set-up": "method as in ref 2 (supplement)", "conditions": "1923 tested; ref 2 (supplement); cited from earlier work"}, "[10]": {"molecular_target": "Kv1.5 (Homo sapiens, UniProt P22460)", "test": "In vitro ion channel function", "format": "cell-based", "conditions": "Ikr/Kv1.5 IC50, Rapidly activating K^+ delayed rectifier", "description": "Supplement srep11827-s1.doc, table 3 | column: Table S2: In vitro ion channel function IC50 (µM)"}, "[11]": {"test": "plasma protein binding, rat", "format": "in vitro ADME", "conditions": "in vitro at 1-50 µM", "description": "Supplement srep11827-s1.doc, table 4 | column: Han-Wister rat (male)"}, "[12]": {"test": "Human plasma protein binding (PPB)", "conditions": "plasma"}, "[13]": {"molecular_target": "S. aureus DNA gyrase (Staphylococcus aureus, UniProt P0A0K8+P20831)", "conditions": "free Mg2+ 0.06 μM to 8 mM"}, "[14]": {"system": "Streptococcus agalactiae", "set-up": "method as in ref 2 (supplement)", "conditions": "441 tested; ref 2 (supplement); cited from earlier work"}, "[15]": {"system": "S. aureus AP607004 (MRQR)", "test": "MIC (CLSI broth microdilution)", "format": "cell-based"}, "[16]": {"test": "Single dose pharmacokinetics, mouse", "format": "in vivo, CD-1 mouse", "procedure": "(§1) AZD0914 was analyzed in mouse, rat, dog, monkey plasma using a qualified method which was later validated for human plasma analysis. The validated human method is described below and is representative of the approach taken in other species. AZD0914 was determined in human plasma prepared with K2EDTA as an anticoagulant. AZD0914 and an internal standard (^13C2, ^15N2 AZD0914) were extracted from plasma with tert- butyl methyl ether. After evaporating to dryness under a stream of nitrogen, the residue was reconstituted and quantitated by reverse phase HPLC-MS/MS against a standard curve from 1.00 to 5000 ng/ml. Separation was achieved using a gradient which went from 55% to 85% methanol:acetonitrile (1:1) containing 0.2% formic acid as mobile phase B and 0.2% formic acid in water as mobile phase A at a flow rate of 0.60 ml/min through a Phenomonex Gemini C18 column (50 x 2.0 mm column, […]) heated using a Shimadzu CTO-20AC set to 40 °C. AZD0914 was detected in multiple reaction monitoring (MRM) mode by positive ion electrospray ionization using a Sciex API5500 (Toronto, Canada) mass spectrometer. The ion spray voltage was set to 5500 V and turboionspray temperature was 650 °C. AZD0914 was quantitated using the MRM transition 488.2 → 348.2 using a collision energy of 29 eV. The internal standard, (^13C2, ^15N2 AZD0914), was monitored using identical conditions except for the MRM transition of 492.2 → 348.2."}, "[17]": {"system": "N. gonorrhoeae", "test": "clinical PK/PD magnitude, gonococcal infection"}, "[18]": {"system": "Mycoplasma genitalium", "set-up": "method as in ref 3 (supplement)", "conditions": "11 tested; ref 3 (supplement); cited from earlier work"}, "[19]": {"test": "plasma protein binding, dog", "format": "in vitro ADME", "conditions": "in vitro at 1-50 µM", "description": "Supplement srep11827-s1.doc, table 4 | column: Beagle dog (male)"}, "[20]": {"system": "Moraxella catarrhalis", "set-up": "method as in ref 2 (supplement)", "conditions": "145 tested; ref 2 (supplement); cited from earlier work"}, "[21]": {"test": "physchem"}, "[22]": {"system": "S. pneumoniae ARC2205 (ERQR)", "test": "MIC (CLSI broth microdilution)", "format": "cell-based"}, "[23]": {"test": "plasma protein binding, mouse", "conditions": "in vitro at 1-50 µM"}, "[24]": {"test": "Single dose pharmacokinetics, monkey", "format": "in vivo", "conditions": "plasma, Cynomologus monkey (male)", "procedure": "as §1"}, "[25]": {"molecular_target": "S. aureus Topo IV (Staphylococcus aureus, UniProt P0C1S7+P0C1U9)", "test": "S. aureus Topo IV cleaved complex ligation assay", "format": "biochemical", "conditions": "free Mg2+ 0.06 μM to 8 mM"}, "[26]": {"conditions": "11640 tested, ref 2 (supplement)"}, "[27]": {"conditions": "473 tested, ref 4-6 (supplement)"}}, "note": "Like-named read-outs stand apart in the source and are kept apart here.", "data": [{"compound": "C[C@@H]1CN2c3c(cc4c(N5C(=O)OC[C@@H]5C)noc4c3F)CC3(C(=O)NC(=O)NC3=O)[C@H]2[C@H](C)O1", "note": "[ETX0914]", "values": [{"measurement": "MIC90", "setting": "[1]; [26]", "result": "0.25^2 µg/ml"}, {"measurement": "MIC Range", "setting": "[1]; [26]", "result": "≤ 0.008 to 0.5", "unit": "µg/mL"}, {"measurement": "MIC90, skin infection (S. aureus)", "setting": "[1]; Table 2", "result": 0.25, "unit": "µg/mL"}, {"measurement": "MIC90", "setting": "[2]", "result": "0.25^3 µg/ml"}, {"measurement": "MIC Range", "setting": "[2]", "result": "0.06 to 0.5", "unit": "µg/mL"}, {"measurement": "MIC90", "setting": "[3]; [27]", "result": "0.125^4-6 µg/ml"}, {"measurement": "MIC Range", "setting": "[3]; [27]", "result": "0.004 to 0.25", "unit": "µg/mL"}, {"measurement": "MIC90, gonococcal infection (N. gonorrhoeae)", "setting": "[3]; Table 2, first entry of the cell (ciprofloxacin: 250 mg UID line)", "result": 0.12, "unit": "µg/mL"}, {"measurement": "MIC90", "setting": "[4]", "result": "0.5^2 µg/ml"}, {"measurement": "MIC Range", "setting": "[4]", "result": "0.03 to 2.0", "unit": "µg/mL"}, {"measurement": "NOEL", "setting": "[5]; CV dog telemetry, single dose, iv", "result": 50, "unit": "mg/kg/day"}, {"measurement": "cardiovascular effects", "setting": "[5]; IV telemetry dog study, 100 mg/kg", "result": "decreases in blood pressure, contractility and PR interval and an increase in the heart rate"}, {"measurement": "other ECG intervals", "setting": "[5]; dog", "result": "no changes to other ECG intervals including QTc or QRS"}, {"measurement": "Cmax", "setting": "[5]; dog, iv, 50 mg/kg", "result": 63, "unit": "µg/mL"}, {"measurement": "Cmax", "setting": "[5]; dog, iv, 100 mg/kg", "result": 160, "unit": "µg/mL"}, {"measurement": "Salient Pathology Findings", "setting": "[5]; single dose iv, 100 mg/kg", "result": "Emesis Increase in cardiac contractility\\relaxation and heart rate Decrease in systolic & diastoloic blood pressure Orthostatic hypertension"}, {"measurement": "MIC", "setting": "[6]", "result": 0.125, "unit": "µg/mL"}, {"measurement": "MIC: N. gonorrhoeae ARC4676 (QR)", "setting": "[7]", "result": 0.125, "unit": "µg/mL"}, {"measurement": "hepatocyte CLint at 1 µM", "setting": "[8]", "result": 7, "unit": "µL/min/1e6 cells"}, {"measurement": "MIC90", "setting": "[9]", "result": "0.25^2 µg/ml"}, {"measurement": "MIC Range", "setting": "[9]", "result": "0.015 to 2.0", "unit": "µg/mL"}, {"measurement": "IC50", "setting": "[10]", "result": "> 333", "unit": "µM"}, {"measurement": "PPB (%free)", "setting": "[11]", "result": "19.1±1.1", "unit": "%free"}, {"measurement": "fraction unbound", "setting": "[12]", "result": 0.17}, {"measurement": "re-ligation of inhibitor-induced cleaved DNA on removal of Mg2+", "setting": "[13]", "result": "re-ligation remained blocked"}, {"measurement": "re-ligation of inhibitor-induced cleaved DNA on removal of Mg2+", "setting": "[13]; listed as AZD0914", "result": "No ligation is observed"}, {"measurement": "MIC90", "setting": "[14]", "result": "0.25^2 µg/ml"}, {"measurement": "MIC Range", "setting": "[14]", "result": "0.03 to 0.5", "unit": "µg/mL"}, {"measurement": "MIC: S. aureus AP607004 (MRQR)", "setting": "[15]", "result": 0.5, "unit": "µg/mL"}, {"measurement": "clearance", "setting": "[16]; CD-1, plasma, mouse, ABT pre-dosing, read-out: CLp after pre-dosing with 1-aminobenzotriazole (ABT)", "result": 15, "unit": "mL/min/kg"}, {"measurement": "Ka", "setting": "[16]; CD-1 mouse (female)", "result": 1.7, "unit": "h⁻¹"}, {"measurement": "lowering of CLp by ABT pre-dosing", "setting": "[16]; mouse", "result": "~5", "unit": "fold"}, {"measurement": "clearance", "setting": "[16]; plasma, CD-1 mouse (female), IV 3 mg/kg, read-out: Clp (IV)", "result": 70, "unit": "mL/min/kg"}, {"measurement": "half-life", "setting": "[16]; plasma, CD-1 mouse (female), IV 3 mg/kg, read-out: T1/2 (IV) (converted)", "result": 0.5, "unit": "h"}, {"measurement": "Vd", "setting": "[16]; plasma, CD-1 mouse (female), IV 3 mg/kg, read-out: Vss (IV)", "result": 3.6, "unit": "L/kg"}, {"measurement": "bioavailability", "setting": "[16]; plasma, CD-1 mouse (female), IV 3 / PO 10 mg/kg", "result": 46, "unit": "%"}, {"measurement": "Cmax", "setting": "[16]; plasma, CD-1 mouse (female), PO 10 mg/kg", "result": 1.7, "unit": "µM"}, {"measurement": "half-life", "setting": "[16]; plasma, CD-1 mouse (female), PO 10 mg/kg, read-out: T1/2 (PO) (converted)", "result": 1.6, "unit": "h"}, {"measurement": "predicted efficacious mean AUC in humans", "setting": "[17]", "result": 49000, "unit": "ng·h/mL"}, {"measurement": "MIC90", "setting": "[18]", "result": "1.0^3 µg/ml"}, {"measurement": "MIC Range", "setting": "[18]", "result": "0.5 to 1.0", "unit": "µg/mL"}, {"measurement": "PPB (%free)", "setting": "[19]", "result": "18.4±0.3", "unit": "%free"}, {"measurement": "MIC90", "setting": "[20]", "result": "0.25^2 µg/ml"}, {"measurement": "MIC Range", "setting": "[20]", "result": "0.015 to 0.5", "unit": "µg/mL"}, {"measurement": "solubility", "setting": "[21]", "result": 390, "unit": "µM"}, {"measurement": "MIC: S. pneumoniae ARC2205 (ERQR)", "setting": "[22]", "result": 0.125, "unit": "µg/mL"}, {"measurement": "PPB (%free)", "setting": "[23]", "result": 22.1, "unit": "%free"}, {"measurement": "PPB (%free)", "setting": "[23]; listed as AZD0914", "result": "22.1±0.3", "unit": "%free"}, {"measurement": "clearance", "setting": "[24]; IV 2.5 mg/kg, read-out: Clp (IV)", "result": 12, "unit": "mL/min/kg"}, {"measurement": "half-life", "setting": "[24]; IV 2.5 mg/kg, read-out: T1/2 (IV) (converted)", "result": 1.6, "unit": "h"}, {"measurement": "Vd", "setting": "[24]; IV 2.5 mg/kg, read-out: Vss (IV)", "result": 1.3, "unit": "L/kg"}, {"measurement": "bioavailability", "setting": "[24]; IV 2.5 / PO 5 mg/kg", "result": 58, "unit": "%"}, {"measurement": "Cmax", "setting": "[24]; PO 5 mg/kg", "result": 6.5, "unit": "µM"}, {"measurement": "half-life", "setting": "[24]; PO 5 mg/kg, read-out: T1/2 (PO) (converted)", "result": 1.6, "unit": "h"}, {"measurement": "re-ligation of inhibitor-induced cleaved DNA on removal of Mg2+", "setting": "[25]", "result": "No ligation is observed"}]}]}
